{"source": "paper PMC10773943", "about": "“Molecular cloning and functional analysis of 4-coumarate: CoA ligases from Marchantia paleacea and their roles in lignin and flavanone biosynthesis” (PLOS ONE, 2024)", "assay_type_in_all_cases": "biochemical, Marchantia paleacea", "details_in_all_cases": "ATP, MgCl2, 200 mM Tris-HCl (assay: 5 mM ATP, 300 μM CoA, 5 mM MgCl2, pH 7.5, 30°C)", "key": {"[1]": {"tested_on": "T1, Mp4CL1", "T1 construct": "expressed in E. coli BL21(DE3), purified; from transcriptome SRP078650", "experiment": "UV absorbance of CoA ester formation at […] nm"}, "[2]": {"tested_on": "T1, Mp4CL1", "experiment": "UV absorbance of CoA ester formation at […] nm", "remark": "listed apart in the source"}, "[3]": {"tested_on": "T1, Mp4CL1", "experiment": "UV absorbance of CoA ester formation at […] nm", "remark": "listed apart in the source"}, "[4]": {"tested_on": "T1, Mp4CL1", "experiment": "HPLC quantification of CoA ester with calibration curve", "description": "HPLC quantification of CoA ester with calibration curve on Mp4CL1"}}}
{"molecule": "O=C(O)/C=C/c1ccc(O)c(O)c1", "note": "[caffeic acid]", "values": [{"measurement": "Km", "setting": "[1]", "value": "113 ± 24.3", "unit": "µM"}]}
{"molecule": "O=C(O)/C=C/c1ccccc1", "note": "[cinnamic acid]", "values": [{"measurement": "Km", "setting": "[2]", "value": "115 ± 16.6", "unit": "µM"}]}
{"molecule": "COc1cc(/C=C/C(=O)O)ccc1O", "note": "[ferulic acid]", "values": [{"measurement": "Km", "setting": "[1]", "value": "414 ± 95.7", "unit": "µM"}]}
{"molecule": "O=C(O)/C=C/c1ccc(O)cc1", "note": "[p-coumaric acid]", "values": [{"measurement": "Km", "setting": "[3]", "value": "94 ± 30.9", "unit": "µM"}]}
{"molecule": "O=C(O)CCc1ccc(O)cc1", "note": "[dihydro-p-coumaric acid]", "values": [{"measurement": "Km", "setting": "[4]", "value": "289 ± 36.5", "unit": "µM"}]}
